The values below come from paper PMC9229949 (Pharmaceutics, 2022).

For one assay, the target named is T1, human TrxR (hTrxR) (Homo sapiens, UniProt Q16881).
T1 construct: made in house
T1 sequence (Q16881 151-649 limits assumed): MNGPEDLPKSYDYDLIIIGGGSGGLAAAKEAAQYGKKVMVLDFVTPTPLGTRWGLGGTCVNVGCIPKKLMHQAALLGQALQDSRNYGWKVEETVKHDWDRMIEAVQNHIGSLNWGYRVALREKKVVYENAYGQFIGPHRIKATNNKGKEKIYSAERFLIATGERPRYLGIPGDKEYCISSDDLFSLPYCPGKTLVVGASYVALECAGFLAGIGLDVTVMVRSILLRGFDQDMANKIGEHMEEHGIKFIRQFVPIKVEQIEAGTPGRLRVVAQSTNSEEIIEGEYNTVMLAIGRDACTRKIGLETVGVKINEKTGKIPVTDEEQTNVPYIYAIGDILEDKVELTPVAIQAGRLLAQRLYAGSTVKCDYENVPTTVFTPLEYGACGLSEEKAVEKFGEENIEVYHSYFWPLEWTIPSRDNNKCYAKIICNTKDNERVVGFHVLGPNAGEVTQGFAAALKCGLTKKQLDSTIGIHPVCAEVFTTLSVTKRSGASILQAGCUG
In words: Inhibition of enzymatic activity of recombinant human TrxR. To be noted: recombinant enzyme, 15 min preincubation; mean of one experiment; read-out: IC50 for TrxRs, Human (Sec). The class given is biochemical. How it is done:
(§1) The codon-optimized sequence for PfTrxR [27, 28] was synthesized and subcloned into pET-15b (Genscript) and expressed and purified as for human glutathione reductase (hGR). Recombinant Schistosoma mansoni (S. mansoni) thioredoxin glutathione reductase (SmTGR), human TrxR (hTrxR), and hGR proteins were expressed and purified as described. TrxR and TGR enzyme inhibition assays were performed in triplicate at 25 °C in 0.1 M potassium phosphate (pH 7.4), 10 mM EDTA, 100 µM NADPH and 0.01% Tween-20. SmTGR (4 nM), hTrxR (4 nM), and PfTrxR (50 nM) were preincubated with the compounds for 15 min. The reaction was started with addition of an equal volume of 5,5′-dithiobis(2-nitrobenzoic acid) (6 mM) and NADPH (100 µM). The increase in A412 during the first 3 min was recorded. […]. The reactions were performed in triplicate. The IC50s were calculated in Prism version 5.01.

Assay [1] deals with T2, human glutathione reductase (hGR) (Homo sapiens, UniProt P00390).
T2 construct: made in house
T2 sequence (P00390 44-522): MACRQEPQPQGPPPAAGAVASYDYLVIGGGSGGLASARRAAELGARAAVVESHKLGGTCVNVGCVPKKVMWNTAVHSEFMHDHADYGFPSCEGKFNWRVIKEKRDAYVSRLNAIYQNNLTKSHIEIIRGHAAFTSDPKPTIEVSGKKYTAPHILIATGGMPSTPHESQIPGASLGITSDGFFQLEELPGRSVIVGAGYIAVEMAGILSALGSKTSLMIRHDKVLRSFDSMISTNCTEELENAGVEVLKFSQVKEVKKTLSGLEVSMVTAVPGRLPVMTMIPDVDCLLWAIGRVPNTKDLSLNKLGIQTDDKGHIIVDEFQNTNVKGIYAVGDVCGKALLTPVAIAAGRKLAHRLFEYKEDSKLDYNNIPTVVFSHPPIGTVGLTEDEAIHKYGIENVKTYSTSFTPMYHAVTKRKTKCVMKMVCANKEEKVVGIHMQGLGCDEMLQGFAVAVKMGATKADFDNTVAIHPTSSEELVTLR
In words: Inhibition of enzymatic activity of recombinant human glutathione reductase. The assay is classed as biochemical. Particulars: recombinant enzyme, 15 min preincubation; mean of one experiment; read-out: IC50, Human GR. How it is done:
as §1

The next assay addresses T3, PfTrxR (Plasmodium falciparum, UniProt Q25861).
T3 construct: made in house
T3 sequence (Q25861 1-541): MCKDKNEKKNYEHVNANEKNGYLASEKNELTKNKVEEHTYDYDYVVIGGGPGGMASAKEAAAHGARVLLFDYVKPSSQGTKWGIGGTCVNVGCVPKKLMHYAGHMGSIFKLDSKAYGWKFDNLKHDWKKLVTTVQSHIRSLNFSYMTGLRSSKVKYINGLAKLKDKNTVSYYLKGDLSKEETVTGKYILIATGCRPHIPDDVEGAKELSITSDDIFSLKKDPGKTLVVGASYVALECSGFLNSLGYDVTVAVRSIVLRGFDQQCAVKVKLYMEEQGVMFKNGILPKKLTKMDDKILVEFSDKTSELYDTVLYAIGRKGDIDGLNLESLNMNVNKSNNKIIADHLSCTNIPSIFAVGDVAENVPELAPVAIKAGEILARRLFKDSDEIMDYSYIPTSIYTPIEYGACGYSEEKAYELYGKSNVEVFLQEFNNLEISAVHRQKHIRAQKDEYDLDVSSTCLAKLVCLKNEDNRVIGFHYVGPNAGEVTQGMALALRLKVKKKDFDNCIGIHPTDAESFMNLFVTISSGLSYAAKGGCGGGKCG
Nature of the assay: Inhibition of enzymatic activity of recombinant P. falciparum TrxR. The assay is classed as biochemical. Particulars: recombinant enzyme, 15 min preincubation; mean of one experiment; read-out: IC50 for TrxRs, P. falciparum (Cys). How it is done: as §1

Assay [2] relates to P. falciparum 3D7 (CQ-susceptible) asexual blood stages. Details: method as in PMID 29465117. Particulars: in vitro antiplasmodial activity; read-out: P. falciparum 3D7 (Cell Based Activity), IC50; cited from earlier work.
Assay [3] deals with T4, S. mansoni thioredoxin-glutathione reductase (SmTGR) (Schistosoma mansoni, UniProt Q962Y6).
T4 construct: made in house
T4 sequence (Q962Y6 1-598): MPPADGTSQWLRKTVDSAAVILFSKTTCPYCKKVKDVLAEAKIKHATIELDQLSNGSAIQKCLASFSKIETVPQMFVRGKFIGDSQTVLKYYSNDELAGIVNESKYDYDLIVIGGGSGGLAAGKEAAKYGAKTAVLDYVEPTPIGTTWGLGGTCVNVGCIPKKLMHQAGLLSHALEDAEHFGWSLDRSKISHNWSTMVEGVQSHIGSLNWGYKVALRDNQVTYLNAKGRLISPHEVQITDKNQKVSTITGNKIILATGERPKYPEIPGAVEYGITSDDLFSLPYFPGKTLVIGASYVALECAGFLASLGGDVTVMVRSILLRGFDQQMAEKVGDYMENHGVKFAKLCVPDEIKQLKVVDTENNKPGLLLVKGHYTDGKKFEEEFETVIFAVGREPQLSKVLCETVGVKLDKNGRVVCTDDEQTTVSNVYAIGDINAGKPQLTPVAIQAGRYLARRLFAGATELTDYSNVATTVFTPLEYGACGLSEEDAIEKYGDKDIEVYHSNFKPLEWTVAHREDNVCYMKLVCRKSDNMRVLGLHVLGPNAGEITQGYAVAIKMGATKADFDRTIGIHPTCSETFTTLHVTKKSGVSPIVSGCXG
In words: Inhibition of enzymatic activity of recombinant S. mansoni thioredoxin glutathione reductase. The assay is classed as biochemical. Particulars: 15 min preincubation, mean of one experiment, read-out: IC50 for TrxRs, S. mansoni (Sec). How it is done: as §1

On to `CC(=O)OC[C@H]1O[C@@H]([S-])[C@H](OC(C)=O)[C@@H](OC(C)=O)[C@@H]1OC(C)=O.CCP(CC)CC.[Au+]` [Auranofin, auranofin], for which the IC50 – broadly, the concentration needed to halve the response being measured – at human TrxR (hTrxR) is 20 nM; in assay [1] it was 40000 nM; on PfTrxR, 62 nM; in assay [2], 60 nM; in assay [3] it was 7 nM.
